Results on 21 compounds are retold here after patent EP0638553A1, “Carboxylic acid amides having a terminal carboxylic acid group as aggregation inhibiting drugs” (Dr. Karl Thomae GmbH, priority 1993, dated 1995).

pEC50, pIC50: −log10 of the molar value. Where a name gives a salt, the structure may show the parent alone.

One data set relates to Maus. The experiment in a line: Tolerability after intravenous administration to the mouse. The format is in vivo. Particulars: 30 mg/kg intravenous, 3 animals tested.
Another data set relates to Humanthrombozyten. The experiment in a line: Inhibition of the binding of ³H-BIBU 52 to human platelets (fibrinogen binding test). As to conditions: displacement of ³H-BIBU 52 (5 nM) from human platelets in plasma, 20 min at room temperature; read-out: Fibrinogen-Bindungstest IC₅₀. The source says: 1. Hemmung der Bindung von ³H-BIBU 52 an Humanthrombozyten:
Eine Suspension von Humanthrombozyten in Plasma wird mit ³H-BIBU 52 [= (3S,5S)-5-[(4'-Amidino-4-biphenylyl)oxymethyl]-3-[(carboxyl)methyl]-2-pyrrolidinon[3-³H-4-biphenylyl]], das den literaturbekannten Liganden ¹²⁵J-Fibrinogen ersetzt, (siehe deutsche Patentanmeldung P 42 14 245.8 der gleichen Anmelderin vom 30. 04. 1992, internes Zeichen: Case 5/1093-FL) und verschiedenen Konzentrationen der zu testenden Substanz inkubiert. Der freie und gebundene Ligand wird durch Zentrifugation getrennt und durch Szintillationszählung quantitativ bestimmt. Aus den Meßwerten wird die Hemmung der ³H-BIBU 52-Bindung durch die Testsubstanz bestimmt.
Hierzu wird aus einer Antikubitalvene Spenderblut entnommen und mit Trinatriumzitrat antikoaguliert (Endkonzentration 13 mM). Das Blut wird 10 Minuten bei 170 x g zentrifugiert und das überstehende plättchenreiche Plasma (PRP) abgenommen. Das Restblut wird zur Gewinnung von Plasma noch einmal scharf abzentrifugiert. Das PRP wird mit autologem Plasma 1:10 verdünnt. 750 ml werden mit 50 ml physiologischer Kochsalzlösung, 100 ml Testsubstanzlösung, 50 ml ¹⁴C-Sucrose (3.700 Bq) und 50 ml ³H-BIBU 52 (Endkonzentration: 5 nM) bei Raumtemperatur 20 Minuten inkubiert. Zur Messung der unspezifischen Bindung wird anstelle der Testsubstanz 5 ml BIBU 52 (Endkonzentration: […]) eingesetzt. Die Proben werden 20 Sekunden bei 10000 x g zentrifugiert und der Überstand abgezogen. 100 ml hiervon werden zur Bestimmung des freien Liganden gemessen. Das Pellet wird in 500 ml 0,2N NaOH gelöst, 450 ml werden mit 2 ml Szintillator und 25 ml 5N HCl versetzt und gemessen. Das im Pellet noch verbliebene Restplasma wird aus dem ¹⁴C-Gehalt bestimmt, der gebundene Ligand aus der ³H-Messung. Nach Abzug der unspezifischen Bindung wird die Pelletaktivität gegen die Konzentration der Testsubstanz aufgetragen und die Konzentration für eine 50%ige Hemmung der Bindung ermittelt.

The test system of the next data set is Thrombozytenaggregation. The experiment in a line: Collagen-induced platelet aggregation in platelet-rich plasma (method of Born and Cross). The format is cell-based. Particulars: human platelet-rich plasma, 10 min preincubation at 37°C, 50% change of optical density, read-out: Hemmung der Plättchenaggregation EC₅₀. The source says: 2. Antithrombotische Wirkung
Die Thrombozytenaggregation wird nach der Methode von Born und Cross (J. Physiol. 170, 397 (1964)) in plättchenreichem Plasma gesunder Versuchspersonen gemessen. Zur Gerinnungshemmung wird das Blut mit Natriumcitrat 3,14 % im Volumenverhältnis 1:10 versetzt.
Collagen-induzierte Aggregation
Der Verlauf der Abnahme der optischen Dichte der Plättchensuspension wird nach Zugabe der aggregationsauslösenden Substanz photometrisch gemessen und registriert. Aus dem Neigungswinkel der Dichtekurve wird auf die Aggregationsgeschwindigkeit geschlossen. Der Punkt der Kurve, bei dem die größte Lichtdurchlässigkeit vorliegt, dient zur Berechnung der "optical density".
Die Collagen-Menge wird möglichst gering gewählt, aber doch so, daß sich eine irreversibel verlaufende Reaktionskurve ergibt. Verwendet wird das handelsübliche Collagen der Firma Hormonchemie, München.
Vor der Collagen-Zugabe wird das Plasma jeweils 10 Minuten mit der Substanz bei 37°C inkubiert.
Aus den erhaltenen Meßzahlen wird graphisch eine EC₅₀ bestimmt, die sich auf eine 50%ige Änderung der "optical density" im Sinne einer Aggregationshemmung bezieht.

On to `O=C(N[C@H]1CC[C@H](C(=O)O)CC1)c1ccc(CCC23CCN(CC2)CC3)cc1` [1(2), trans-4-[4-[2-(4-Chinuclidinyl)-ethyl]-benzoylamino]-cyclohexancarbonsäure], for which the “Mortality (verstorbene Tiere)” value in the data set with Maus was “keines der 3 getesteten Tiere verstarb”.

In the case of `O=C(O)CC1CCN(C(=O)c2ccc(CCC34CCN(CC3)CC4)cc2)CC1` [1(1), 4-Carboxymethyl-1-[4-[2-(4-chinuclidinyl)-ethyl]-benzoyl]-piperidin], the pIC50 in the data set on Humanthrombozyten is 6.44. Moreover, the pEC50 in the data set with Thrombozytenaggregation is 6.21.

As for `O=C(N[C@H]1CC[C@H](C(=O)O)CC1)N1CCC(COC2CCNCC2)CC1` [3(16), trans-4-[[4-[(4-Piperidinyl)-oxymethyl]-1-piperidinyl]-carbonylamino]-cyclohexancarbonsäure-hydrochlorid], in the data set with Humanthrombozyten, the pIC50 was 6.80. Besides, the pEC50 in the data set with Thrombozytenaggregation was 6.57.

As for `O=C(N[C@H]1CC[C@H](C(=O)O)CC1)c1ccc(NC(=O)C2CCNCC2)cc1` [3(9), trans-4-[4-[(4-Piperidinyl)-carbonylamino]-benzoylamino]-cyclohexancarbonsäure-hydrochlorid], the pIC50 in the data set with Humanthrombozyten is 5.64. In the data set on Thrombozytenaggregation, the pEC50 was 5.49.

With `O=C(N[C@H]1CC[C@H](C(=O)O)CC1)c1cccc(CCC23CCN(CC2)CC3)c1` [Beispiel 1, trans-4-[3-[2-(4-Chinuclidinyl)-ethyl]-benzoylamino]-cyclohexancarbonsäure], the pIC50 in the data set with Humanthrombozyten was 6.26. For the same compound, in the data set with Thrombozytenaggregation, the pEC50 is 5.77.

In the case of `O=C(N[C@H]1CC[C@H](C(=O)O)CC1)c1ccc(OCC23CCN(CC2)CC3)cc1` [Beispiel 3, trans-4-[4-[(4-Chinuclidinyl)-methyloxy]-benzoylamino]-cyclohexancarbonsäure-hydrochlorid], the “Mortality (verstorbene Tiere)” value in the data set on Maus is recorded as “keines der 3 getesteten Tiere verstarb”. In the data set on Humanthrombozyten, the pIC50 is 7.07. Besides, the pEC50 in the data set on Thrombozytenaggregation is 6.44.

With `O=C(N[C@H]1CC[C@H](C(=O)O)CC1)c1cccc(OCC2CCNCC2)c1` [3(15), trans-4-[3-[(4-Piperidinyl)-methyloxy]-benzoylamino]-cyclohexancarbonsäure-hydrochlorid], in the data set on Humanthrombozyten, the pIC50 is 6.20. In the data set with Thrombozytenaggregation, the pEC50 was 5.92.

As to `NCCc1ccc(C(=O)N[C@H]2CC[C@H](CCC(=O)O)CC2)cc1` [3(32), trans-1-[4-(2-Amino-ethyl)-benzoylamino]-4-(2-carboxyethyl)-cyclohexan-hydrochlorid], the pEC50 in the data set on Thrombozytenaggregation was 5.92.

As to `O=C(O)CCC1CCN(C(=O)c2ccc(NCC3CCNCC3)cc2)CC1` [3(7), 4-(2-Carboxy-ethyl)-1-[4-[[(4-piperidinyl)-methyl]-amino]-benzoyl]-piperidin-hydrochlorid], the pIC50 in the data set with Humanthrombozyten is 4.31. In addition, in the data set with Thrombozytenaggregation, the pEC50 was 4.35.

Take `O=C(NC1CCNCC1)c1ccc(C(=O)N[C@H]2CC[C@H](C(=O)O)CC2)cc1` [3(4), trans-4-[4-[(4-Piperidinyl)-aminocarbonyl]-benzoylamino]-cyclohexancarbonsäure-hydrochlorid]: in the data set on Humanthrombozyten, the pIC50 was 5.68. In addition, in the data set on Thrombozytenaggregation, the pEC50 is 5.69.

On to `O=C(N[C@H]1CC[C@H](C(=O)O)CC1)c1ccc(CCc2ccncc2)cc1` [3(30), trans-4-[4-[2-(4-Pyridyl)-ethyl]-benzoylamino]-cyclohexan-carbonsäure-hydrochlorid], for which the pIC50 with Humanthrombozyten was 5.92. Besides, the pEC50 in the data set with Thrombozytenaggregation is 5.97.

With `O=C(N[C@H]1CC[C@H](C(=O)O)CC1)N1CCC(OCC2CCNCC2)CC1` [3(17), trans-4-[[4-[(4-Piperidinyl)-methyloxy]-1-piperidinyl]-carbonylamino]-cyclohexancarbonsäure], in the data set on Maus, the “Mortality (verstorbene Tiere)” value is listed as “keines der 3 getesteten Tiere verstarb”. Also, the pIC50 in the data set on Humanthrombozyten was 7.04. In addition, in the data set with Thrombozytenaggregation, the pEC50 was 6.52.

For the compound `NCCOc1ccc(C(=O)N[C@H]2CC[C@H](OCC(=O)O)CC2)cc1` [4(34)], in the data set on Humanthrombozyten, the pIC50 is 6.08. Also, the pEC50 in the data set on Thrombozytenaggregation is 5.47.

As for `O=C(O)CN(CCNC(=O)N1CCC(OCC2CCNCC2)CC1)CC(=O)O` [1(14), N-Carboxymethyl-N-[2-[[4-[(4-piperidinyl)-methyloxy]-1-piperidinyl]-carbonylamino]-ethyl]-glycin], in the data set with Humanthrombozyten, the pIC50 was 5.16. Also, the pEC50 in the data set on Thrombozytenaggregation was 4.64.

As for `NCCOc1ccc(C(=O)N[C@H]2CC[C@H](CCC(=O)O)CC2)cc1` [4(32)], the pIC50 in the data set with Humanthrombozyten was 6.89. The pEC50 in the data set on Thrombozytenaggregation is 6.01.

Take `COC(=O)[C@H]1CC[C@H](NC(=O)N2CCC(OCC3CCNCC3)CC2)CC1` [4(23), trans-4-[[4-[(4-Piperidinyl)-methyloxy]-1-piperidinyl]-carbonylamino]-cyclohexancarbonsäure-methylester-hydrochlorid]: the “Mortality (verstorbene Tiere)” value in the data set with Maus is “keines der 3 getesteten Tiere verstarb”. Moreover, the pIC50 in the data set on Humanthrombozyten is 6.74. In addition, the pEC50 in the data set with Thrombozytenaggregation was 6.43.

As to `CCCCS(=O)(=O)NC1(C(=O)O)CCC(NC(=O)N2CCC(OCC3CCNCC3)CC2)CC1` (stereo not drawn) [1(7), N-[1-Carboxy-cis-4-[[4-[(4-piperidinyl)-methyloxy]-1-piperidinyl]-carbonylamino]-cyclohexyl]-n-butansulfonamid], in the data set with Humanthrombozyten, the pIC50 is 5.82. Also, the pEC50 with Thrombozytenaggregation is 5.51.

`NCC1CCc2cc(C(=O)N[C@H]3CC[C@H](CCC(=O)O)CC3)ccc2C1` (stereo partly drawn) [3(24), 3-[trans-4-[(2-Aminomethyl-1,2,3,4-tetrahydro-6-naphthyl)-carbonylamino]-cyclohexyl]-propionsäure-hydrochlorid]: the pIC50 in the data set on Humanthrombozyten was 5.82. In the data set with Thrombozytenaggregation, the pEC50 was 5.36.

On to `NC1(C(=O)O)CCC(NC(=O)N2CCC(OCC3CCNCC3)CC2)CC1` (stereo not drawn) [1(9), 1-Carboxy-cis-4-[[4-[(4-piperidinyl)-methyloxy]-1-piperidinyl]-carbonylamino]-cyclohexylamin], for which the pIC50 with Humanthrombozyten was 6.89. Moreover, the pEC50 in the data set on Thrombozytenaggregation is 5.89.

For `O=C(O)CC1CCN(C(=O)c2ccc(NCC3CCNCC3)cc2)CC1` [3(8), 4-Carboxymethyl-1-[4-[[(4-piperidinyl)-methyl]-amino]-benzoyl]-piperidin-hydrochlorid], in the data set on Humanthrombozyten, the pIC50 was 5.19. Besides, the pEC50 with Thrombozytenaggregation was 5.24.

On to `O=C(N[C@H]1CC[C@H](C(=O)O)CC1)c1ccc(OCC2CCNCC2)cc1` [3(23), trans-4-[4-[(4-Piperidinyl)-methyloxy]-benzoylamino]-cyclohexancarbonsäure-hydrochlorid], for which, in the data set on Humanthrombozyten, the pIC50 is 6.72. Further, the pEC50 in the data set on Thrombozytenaggregation is 6.57.
